18 compounds from PubChem BioAssay AID200 (DTP/NCI, 2004) can be followed below.

In this assay the test system is B6C3F1 mice, B16 melanoma ip, median survival T/C. In words: NCI In Vivo Anticancer Drug Screen. Data for tumor model B16 Melanoma (intraperitoneal) in B6C3F1 mice. The conditions noted are these: endpoint: median survival time, higher = longer survival. A digest of the protocol: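 Antitumor effect was judged in mice with transplanted tumors by dividing the treated group's survival measure by that of vehicle controls.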

The mark [1] stands for this setting: dose: 12.5 mg/kg/injection, schedule: Q01DX009 (ip), vehicle: saline with Tween-80.
[2] abbreviates: dose: 50.0 mg/kg/injection, schedule: Q01DX009 (ip), vehicle: saline with Tween-80.
The mark [3] stands for this setting: dose: 100.0 mg/kg/injection, schedule: Q01DX009 (ip), vehicle: saline with Tween-80.
[4] abbreviates: dose: 12.5 mg/kg/injection, schedule: Q01DX009 (ip), vehicle: suspension in saline.
Setting [5] is: dose: 25.0 mg/kg/injection, schedule: Q01DX009 (ip), vehicle: saline with Tween-80.
Where [6] appears, read: dose: 25.0 mg/kg/injection, schedule: Q01DX009 (ip), vehicle: suspension in saline.
Setting [7] is: dose: 50.0 mg/kg/injection, schedule: Q01DX009 (ip), vehicle: suspension in saline.
The mark [8] stands for this setting: dose: 100.0 mg/kg/injection, schedule: Q01DX009 (ip), vehicle: suspension in saline.
Setting [9] is: dose: 200.0 mg/kg/injection, schedule: Q01DX009 (ip), vehicle: saline with Tween-80.
Setting [10] is: dose: 200.0 mg/kg/injection, schedule: Q01DX009 (ip), vehicle: suspension in saline.
The mark [11] stands for this setting: dose: 400.0 mg/kg/injection, schedule: Q01DX009 (ip), vehicle: suspension in saline.
[12] abbreviates: dose: 25.0 mg/kg/injection, schedule: Q01DX009 (ip), vehicle: Klucel (hydroxypropylcellulose) (HPC).

Each structure is given as a SMILES string. Several values for one entry are separate records, joined by “and”; a condition that tells them apart may be missing. Identical values can stand only once. Toxic doses and inconclusive results are not listed. *1 amine or outer side, *2 acyl side, *3 side chain or, on linkers, in order; H or OH if unused. Where a SMILES comes first, the peptide text is derived from it. Bridges are numbered along the chain shown (N, C = ends). Roman numbers before positions name the chains, in order. [ ]: non-standard residue; d: D form. The star is where a group is joined. ξ: configuration not given here. Quinaldoyl(3-OH,6-OMe) = COc1ccc2nc(C(=O)*)c(O)cc2c1; X6 = CCC(=O)OC1CC=NN([*:1])C1C(=O)[*:2]; X7 = CC(=O)OC1CC=NN([*:1])C1C(=O)[*:2]; ξNMeVal(3-OH) = CNC(C(=O)O)C(C)(C)O; Sar = CNCC(=O)O

`[Cl][Mn][Cl]`: the T/C is, setting by setting: (dose: 2.0 mg/kg/injection, schedule: Q01DX009 (ip), vehicle: saline) 115 % of control and 107 % of control; (dose: 4.0 mg/kg/injection, schedule: Q01DX009 (ip), vehicle: saline) 96 % of control and 103 % of control and 106 % of control; (dose: 8.0 mg/kg/injection, schedule: Q01DX009 (ip), vehicle: saline) 112 % of control and 98 % of control; (dose: 16.0 mg/kg/injection, schedule: Q01DX009 (ip), vehicle: saline) 104 % of control; (dose: 32.0 mg/kg/injection, schedule: Q01DX009 (ip), vehicle: saline) 155 % of control; (dose: 64.0 mg/kg/injection, schedule: Q01DX009 (ip), vehicle: saline) 152 % of control and 160 % of control.
`[Cl][Pt+2][Cl].[NH-]c1cc(Cl)c(Cl)c(Cl)c1[NH-]`: the T/C (dose: 40.0 mg/kg/injection, schedule: Q01DX009 (ip), vehicle: distilled water + Tween-80) is 109 % of control and the T/C (dose: 80.0 mg/kg/injection, schedule: Q01DX009 (ip), vehicle: distilled water + Tween-80) is 102 % of control.
Turning to `CNc1cccnc1/C=N/NC(N)=S`, the T/C was 119 % of control under setting [1], 159 % of control under setting [2] and 151 % of control under setting [3].
In the case of `O=C1N[C@@H]2C(=C[C@H](O)[C@@H](O)[C@H]2O)c2cc3c(c(O)c21)OCO3`, the T/C is 115 % of control (dose: 0.62 mg/kg/injection, schedule: Q01DX009 (ip), vehicle: saline with Tween-80); 111 % of control (dose: 1.25 mg/kg/injection, schedule: Q01DX009 (ip), vehicle: saline with Tween-80); 109 % of control (dose: 2.5 mg/kg/injection, schedule: Q01DX009 (ip), vehicle: saline with Tween-80); 123 % of control (dose: 5.0 mg/kg/injection, schedule: Q01DX009 (ip), vehicle: saline with Tween-80).
Turning to `O=C1NC(O)c2ccccc2O1` (stereo not given), the T/C is, setting by setting: under setting [1], 99 % of control; under setting [4], 101 % of control; under setting [5], 103 % of control; under setting [6], 103 % of control; under setting [2], 103 % of control; under setting [7], 101 % of control. In addition, the T/C was 106 % of control under setting [3]; 98 % of control under setting [8]; 114 % of control under setting [9]; 100 % of control under setting [10]; 95 % of control under setting [11].
Turning to `CCN(CC)c1ccc2cc3ccc(=[N+](CC)CC)cc-3oc2c1`, the T/C (dose: 2.5 mg/kg/injection, schedule: Q01DX009 (ip), vehicle: Klucel (hydroxypropylcellulose) (HPC)) was 104 % of control; the T/C (dose: 5.0 mg/kg/injection, schedule: Q01DX009 (ip), vehicle: Klucel (hydroxypropylcellulose) (HPC)) is 96 % of control; the T/C (dose: 10.0 mg/kg/injection, schedule: Q01DX009 (ip), vehicle: Klucel (hydroxypropylcellulose) (HPC)) is 88 % of control.
As to `COc1cccc2c1C(=O)c1c(O)c3c(c(O)c1C2=O)C[C@@](O)(C(C)=O)C[C@@H]3OC1CC(N(CCO)Cc2ccccc2)C(O)C(C)O1` (stereo not given in full), the T/C (dose: 12.5 mg/kg/injection, schedule: Q01DX001 (ip), vehicle: water) is 120 % of control and the T/C (dose: 25.0 mg/kg/injection, schedule: Q01DX001 (ip), vehicle: water) is 116 % of control.
With `O=C(O)Cc1cccc2c(=O)cc(-c3ccccc3)oc12`, the T/C under setting [4] is 109 % of control and 103 % of control; the T/C under setting [6] is 115 % of control and 123 % of control; the T/C under setting [7] was 172 % of control; the T/C under setting [8] is 152 % of control and 163 % of control.
Take `NC(CCC(=O)Nc1ccc(O)cc1)C(=O)O` (stereo not given): the T/C was 117 % of control (dose: 50.0 mg/kg/injection, schedule: Q01DX009 (ip), vehicle: saline); 120 % of control (dose: 100.0 mg/kg/injection, schedule: Q01DX009 (ip), vehicle: saline); 103 % of control (dose: 200.0 mg/kg/injection, schedule: Q01DX009 (ip), vehicle: saline); 124 % of control (dose: 400.0 mg/kg/injection, schedule: Q01DX009 (ip), vehicle: saline).
With `CC(=O)Oc1c[nH]c(=O)[nH]c1=O`, the T/C (dose: 12.5 mg/kg/injection, schedule: Q01DX009 (ip), vehicle: distilled water + Tween-80) was 99 % of control; the T/C under setting [1] was 97 % of control; the T/C (dose: 25.0 mg/kg/injection, schedule: Q01DX009 (ip), vehicle: distilled water + Tween-80) is 103 % of control; the T/C under setting [5] is 98 % of control; the T/C (dose: 50.0 mg/kg/injection, schedule: Q01DX009 (ip), vehicle: distilled water + Tween-80) is 103 % of control; the T/C under setting [2] is 98 % of control. In addition, the T/C is 102 % of control (dose: 100.0 mg/kg/injection, schedule: Q01DX009 (ip), vehicle: distilled water + Tween-80); 90 % of control under setting [3]; 98 % of control (dose: 200.0 mg/kg/injection, schedule: Q01DX009 (ip), vehicle: distilled water + Tween-80); 95 % of control under setting [9]; 92 % of control (dose: 400.0 mg/kg/injection, schedule: Q01DX009 (ip), vehicle: distilled water + Tween-80); 98 % of control (dose: 400.0 mg/kg/injection, schedule: Q01DX009 (ip), vehicle: saline with Tween-80).
As for `O=[N+]([O-])c1ccc2c3c(ccc([N+](=O)[O-])c13)CC2`, the T/C under setting [12] is 89 % of control; the T/C (dose: 50.0 mg/kg/injection, schedule: Q01DX009 (ip), vehicle: Klucel (hydroxypropylcellulose) (HPC)) is 89 % of control; the T/C (dose: 100.0 mg/kg/injection, schedule: Q01DX009 (ip), vehicle: Klucel (hydroxypropylcellulose) (HPC)) was 91 % of control and 95 % of control.
For the compound `Cc1c(NS(=O)(=O)c2ccccc2)c(C)c(NS(=O)(=O)c2ccccc2)c(C)c1NS(=O)(=O)c1ccccc1`, the T/C under setting [1] was 97 % of control, the T/C under setting [5] was 100 % of control and the T/C under setting [2] was 94 % of control.
Take `CC(C)(C)OC(=O)NCCCCC(NC(=O)OC(C)(C)C)C(=O)O` (stereo not given): the T/C is 97 % of control under setting [2], 104 % of control under setting [3] and 95 % of control under setting [9].
Turning to `Nc1c(/C=C/c2cc3cc(C4=NCCN4)ccc3o2)[nH]c2cc(C3=NCCN3)ccc12`, the T/C (dose: 1.5 mg/kg/injection, schedule: Q01DX009 (ip), vehicle: Klucel (hydroxypropylcellulose) (HPC)) was 108 % of control; the T/C (dose: 3.0 mg/kg/injection, schedule: Q01DX009 (ip), vehicle: Klucel (hydroxypropylcellulose) (HPC)) was 98 % of control; the T/C (dose: 6.0 mg/kg/injection, schedule: Q01DX009 (ip), vehicle: Klucel (hydroxypropylcellulose) (HPC)) was 95 % of control; the T/C (dose: 12.0 mg/kg/injection, schedule: Q01DX009 (ip), vehicle: Klucel (hydroxypropylcellulose) (HPC)) was 98 % of control; the T/C (dose: 12.5 mg/kg/injection, schedule: Q01DX009 (ip), vehicle: Klucel (hydroxypropylcellulose) (HPC)) was 90 % of control; the T/C (dose: 24.0 mg/kg/injection, schedule: Q01DX009 (ip), vehicle: Klucel (hydroxypropylcellulose) (HPC)) was 90 % of control. For the same compound, under setting [12], the T/C was 89 % of control.
Regarding `CCSCCNC(=O)[C@@]1(O)[C@H](O)[C@]2(CC)C=CCN3CC[C@@]4(c5cc([C@@]6(OC(C)=O)C[C@H]7C=C(CC)CN(CCc8c6[nH]c6ccccc86)C7)c(OC)cc5N(C)[C@@H]14)[C@@H]32`, the T/C (dose: 0.5 mg/kg/injection, schedule: Q01DX009 (ip), vehicle: water) is 164 % of control.
Consider `CC(C)(C)OC(=O)N1CCCC1C(=O)N1CCCC1C(=O)Oc1ccccc1` (stereo not given), for which the T/C was 103 % of control under setting [5]; 93 % of control under setting [2]; 100 % of control under setting [3]; 118 % of control under setting [8]; 94 % of control under setting [9]; 115 % of control under setting [10]. The T/C under setting [11] is 104 % of control.
As for `CCC(=O)OC1CC=NN2C(=O)C(NC(=O)c3nc4ccc(OC)cc4cc3O)COC(=O)C(C(C)(C)O)N(C)C(=O)CN(C)C(=O)CNC(=O)C3C(OC(C)=O)CC=NN3C(=O)C(NC(=O)c3nc4ccc(OC)cc4cc3O)COC(=O)C(C(C)(C)O)N(C)C(=O)CN(C)C(=O)CNC(=O)C12` (stereo not given) (I: {Quinaldoyl(3-OH,6-OMe)}-S[X6]G[Sar][ξNMeVal(3-OH)] / II: {Quinaldoyl(3-OH,6-OMe)}-S[X7]G[Sar][ξNMeVal(3-OH)]; ester I:1-II:C, I:C-II:1; configuration not given here), the T/C (dose: 4.0 micrograms/kg/injection, schedule: Q01DX009 (ip), vehicle: saline) was 98 % of control; the T/C (dose: 8.0 micrograms/kg/injection, schedule: Q01DX009 (ip), vehicle: saline) was 105 % of control; the T/C (dose: 16.0 micrograms/kg/injection, schedule: Q01DX009 (ip), vehicle: saline) was 111 % of control.
Consider `CCN(CC)CCNc1ccc(C)c2sc3ccc(O)cc3c(=O)c12`, for which the T/C is, setting by setting: under setting [2], 150 % of control; under setting [3], 191 % of control.
